Test systems include A498 renal; COLO 205 colon; HCC-2998 colon; LOX IMVI melanoma; NCI-H226 lung; OVCAR-8 ovarian; SF-295 CNS; SK-OV-3 ovarian; SNB-75 CNS; UACC-257 melanoma.
Assay in all cases: inhibition of tumour cell growth, NCI panel, 48 h

Each structure is given as a SMILES string.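 Exposure lasted 48 hours, with cells grown in 96-well plates and compounds tested at five concentrations. GI50 is the concentration that inhibits growth by half. TGI: total growth inhibition.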

Regarding `COc1ccc(C=Nc2c(C(=O)Nc3cccc(Cl)c3C)sc3nc(C)c(C(=O)/C=C/c4ccc(OC)cc4)cc23)cc1`, the GI50 in the experiment with A498 renal was 0.196 µM; in the experiment on COLO 205 colon, 1.82 µM; in the experiment with HCC-2998 colon it was 9.89 µM; with LOX IMVI melanoma it was 0.666 µM; with NCI-H226 lung, 0.621 µM; in the experiment on OVCAR-8 ovarian, 1.38 µM. The GI50 with SF-295 CNS is 0.362 µM; with SK-OV-3 ovarian, 0.958 µM; in the experiment on SNB-75 CNS, 0.191 µM; in the experiment with UACC-257 melanoma, 2.88 µM. In addition, the TGI in the experiment with A498 renal was 2.49 µM; in the experiment on COLO 205 colon, 23.8 µM; in the experiment with HCC-2998 colon it was more than 50 µM; in the experiment on LOX IMVI melanoma, more than 50 µM; with NCI-H226 lung, 11.7 µM; in the experiment on OVCAR-8 ovarian it was more than 50 µM. The TGI in the experiment on SF-295 CNS is 8.43 µM; in the experiment on SK-OV-3 ovarian, more than 50 µM; in the experiment with SNB-75 CNS, 1.88 µM; with UACC-257 melanoma, more than 50 µM.

Regarding `C[C@H]1/C(=C/C(=O)OCCN(C)C)CC[C@H]2[C@H]1C(=O)C[C@H]1C(C)(C)[C@@H](O)CC[C@]21C`, the TGI in the experiment on A498 renal, in the experiment with COLO 205 colon, in the experiment with HCC-2998 colon, in the experiment on LOX IMVI melanoma, in the experiment with NCI-H226 lung and in the experiment with OVCAR-8 ovarian was more than 100 µM in each case. Moreover, the TGI with SF-295 CNS, with SK-OV-3 ovarian, in the experiment on SNB-75 CNS and in the experiment with UACC-257 melanoma was more than 100 µM in each case. In addition, in the experiment on SNB-75 CNS, the GI50 is more than 100 µM.

Turning to `CCCCC(CCCCCC(CCCC)NCc1ccc2c(c1)OCO2)NCc1ccc2c(c1)OCO2` (stereo unspecified), the GI50 in the experiment on A498 renal is 1.49 µM; in the experiment on COLO 205 colon it was 0.189 µM; in the experiment on HCC-2998 colon, 0.178 µM; in the experiment with LOX IMVI melanoma, 0.22 µM; in the experiment with NCI-H226 lung it was 1.91 µM; in the experiment on OVCAR-8 ovarian, 0.393 µM. Further, the GI50 with SF-295 CNS is 1.76 µM; in the experiment with SK-OV-3 ovarian, 1.77 µM; in the experiment on SNB-75 CNS, 1.46 µM; in the experiment with UACC-257 melanoma, 0.199 µM. In addition, the TGI with A498 renal was determined as 2.83 µM; in the experiment on COLO 205 colon it was 0.35 µM; in the experiment on HCC-2998 colon, 0.322 µM; in the experiment with LOX IMVI melanoma, 0.581 µM; in the experiment with NCI-H226 lung, 4.02 µM; in the experiment on OVCAR-8 ovarian, 0.967 µM. In addition, the TGI in the experiment with SF-295 CNS stood at 3.4 µM; in the experiment on SK-OV-3 ovarian, 3.16 µM; in the experiment on SNB-75 CNS, 2.78 µM; in the experiment with UACC-257 melanoma, 0.378 µM.

Take `O=C1/C=C/[C@@H](O)[C@@H]2C[C@@H](O)C[C@H]2/C=C/CCC[C@H](CCc2cccc3ccccc23)O1`: the GI50 is 0.0185 µM in the experiment on A498 renal; 0.0659 µM with COLO 205 colon; 0.0444 µM in the experiment with HCC-2998 colon; 0.0323 µM with LOX IMVI melanoma; 0.0178 µM with NCI-H226 lung; 0.0491 µM in the experiment on OVCAR-8 ovarian. Further, the GI50 in the experiment on SF-295 CNS was 0.0388 µM; in the experiment with SK-OV-3 ovarian it was 0.064 µM; in the experiment with SNB-75 CNS, 0.0358 µM; with UACC-257 melanoma it was 0.0303 µM. Further, the TGI came out at 0.815 µM in the experiment with A498 renal; 0.152 µM in the experiment on COLO 205 colon; 0.33 µM with HCC-2998 colon; 0.11 µM in the experiment with LOX IMVI melanoma; 0.0351 µM in the experiment with NCI-H226 lung; 13 µM in the experiment on OVCAR-8 ovarian. Besides, the TGI with SF-295 CNS was found to be 10.1 µM; in the experiment with SK-OV-3 ovarian it was 12 µM; in the experiment with SNB-75 CNS it was 14.5 µM; with UACC-257 melanoma, 0.983 µM.

For the compound `Cn1c(=O)c(Oc2ccc(F)cc2F)cc2cnc(NC(C)(C)CO)nc21`, the GI50 was more than 15.9 µM in the experiment on A498 renal; more than 25 µM with COLO 205 colon; more than 25 µM in the experiment with HCC-2998 colon; more than 25 µM in the experiment with LOX IMVI melanoma; more than 25 µM with NCI-H226 lung; more than 25 µM in the experiment with OVCAR-8 ovarian. Moreover, the GI50 in the experiment with SF-295 CNS, in the experiment on SK-OV-3 ovarian, in the experiment with SNB-75 CNS and in the experiment on UACC-257 melanoma was more than 25 µM throughout. Moreover, the TGI in the experiment with A498 renal, in the experiment on COLO 205 colon, in the experiment with HCC-2998 colon, with LOX IMVI melanoma, in the experiment with NCI-H226 lung and in the experiment with OVCAR-8 ovarian was more than 25 µM each time. The TGI in the experiment with SF-295 CNS, with SK-OV-3 ovarian, in the experiment with SNB-75 CNS and in the experiment with UACC-257 melanoma was more than 25 µM throughout.

For `O=C(Nc1ccc(Cc2ccccc2)cc1)Nc1nn(C(=O)Nc2ccc(Cc3ccccc3)cc2)c2ccccc12`, the GI50 in the experiment with A498 renal was 82.4 µM; in the experiment on COLO 205 colon, more than 100 µM; with HCC-2998 colon, more than 100 µM; with LOX IMVI melanoma, 71 µM; with NCI-H226 lung, more than 100 µM; in the experiment with OVCAR-8 ovarian it was more than 100 µM. The GI50 in the experiment with SF-295 CNS was more than 100 µM; in the experiment with SK-OV-3 ovarian it was more than 100 µM; in the experiment with SNB-75 CNS, 33.8 µM; in the experiment with UACC-257 melanoma it was more than 100 µM. Moreover, the TGI with A498 renal, with COLO 205 colon, in the experiment on HCC-2998 colon, with LOX IMVI melanoma, in the experiment with NCI-H226 lung and with OVCAR-8 ovarian was more than 100 µM in each case. For the same compound, the TGI with SF-295 CNS, in the experiment on SK-OV-3 ovarian, in the experiment on SNB-75 CNS and with UACC-257 melanoma was more than 100 µM throughout.

`Cc1c2ccn(O)cc2c(C)c2c1nc1ccccc12`: the TGI in the experiment with A498 renal is 55.6 µM; with COLO 205 colon it was more than 100 µM; with HCC-2998 colon, 98.5 µM; in the experiment with LOX IMVI melanoma, 17.1 µM; with NCI-H226 lung, 29 µM; with OVCAR-8 ovarian it was 64.4 µM. The TGI in the experiment on SF-295 CNS was 23.4 µM; with SK-OV-3 ovarian, 39.6 µM; in the experiment with SNB-75 CNS it was 21.3 µM; in the experiment with UACC-257 melanoma, more than 100 µM.

Take `COC1C(O)CC(OC2CC(OC3CC(O[C@@H]4C(=O)c5c(cc6cc(OC7CC(OC8CC(O)C(O)C(C)O8)C(O)C(C)O7)c(C)c(O)c6c5O)CC4[C@H](OC)C(=O)O)OC(C)C3O)OC(C)C2O)OC1C` (stereo partly specified): the GI50 was 0.725 µM in the experiment on A498 renal; 1.09 µM with COLO 205 colon; 3.1 µM in the experiment on HCC-2998 colon; 0.983 µM in the experiment on LOX IMVI melanoma; 1.15 µM with NCI-H226 lung; 2.27 µM with OVCAR-8 ovarian. The GI50 is 0.97 µM in the experiment with SF-295 CNS, 2.24 µM with SK-OV-3 ovarian, 1.03 µM with SNB-75 CNS and 1.94 µM in the experiment with UACC-257 melanoma. The TGI in the experiment on A498 renal was 2.6 µM; in the experiment with COLO 205 colon, 6.9 µM; with HCC-2998 colon, 20 µM; with LOX IMVI melanoma it was 5.07 µM; in the experiment with NCI-H226 lung, 9.72 µM; in the experiment with OVCAR-8 ovarian, more than 33.3 µM. In addition, the TGI is more than 33.3 µM in the experiment on SF-295 CNS, more than 33.3 µM with SK-OV-3 ovarian, 7.89 µM in the experiment on SNB-75 CNS and 13.5 µM in the experiment on UACC-257 melanoma.

Values taken from PubChem BioAssay (NCI).
